Reference: paper PMC6478823, “A suite of phenotypic assays to ensure pipeline diversity when prioritizing drug-like Cryptosporidium growth inhibitors” (Nature Communications, 2019)

Key:
purified N-WASp = test system: purified N-WASp; design: method as in PMID 15235593; details: at 10 µM; cited from earlier work
C. parvum [1] = test: Time-lapse microscopy of live C. parvum egress; details: 2 × EC90 (1.3 µM total)
Description: Cells were then imaged live with 5 min intervals using Nomarski optics and a ×60 oil objective (1.4 NA). […] After 3 h, cells were gently washed with warm complete media to remove oocyst shells before adding either compound or DMSO. Tiled 2 × 2 images were taken live at 20 min intervals using a ×40 dry objective (0.7 NA).

C. parvum [2] = test: Time course infection experiment (PV numbers versus time)
Description: For quantification of parasitophorous vacuoles over time, HCT-8 cells were grown to greater than 90% confluence in 384-well plates and infected with 11,000 oocysts after triggering excystation.

cryptosporidiosis = test system: cryptosporidiosis; design: method as in PMID 17253532; details: cited from earlier work
Cryptosporidium = test system: Cryptosporidium; design: method as in Lee, et al. 2018. AAC; details: ref Lee, et al. 2018. AAC; cited from earlier work

CN(C)C[C@H](O)Cn1c2ccc(Br)cc2c2cc(Br)ccc21 (racemic) [Wiskostatin]
inhibition of purified N-WASp (purified N-WASp): inhibit purified N-WASp

Cc1cccc(-n2ncc3c(O)nc(-n4nc(C)cc4NC(=O)c4cc5ccccc5o4)nc32)c1 [C-1]
parasite egress during live microscopy (C. parvum [1]): inhibited parasite egress | Parasites Detected, Average (C. parvum [2]; C1 at 2*EC90, 6 h post-infection): 1992 | Parasites Detected, Average (C. parvum [2]; C1 at 2*EC90, 9.5 h post-infection): 2503 | Parasites Detected, Average (C. parvum [2]; C1 at 2*EC90, 12 h post-infection): 1773 | Parasites Detected, Average (C. parvum [2]; C1 at 2*EC90, 13.5 h post-infection): 1847 | Parasites Detected, Average (C. parvum [2]; C1 at 2*EC90, 15 h post-infection): 879 | Parasites Detected, Average (C. parvum [2]; C1 at 2*EC90, 18 h post-infection): 1045 | Parasites Detected, Average (C. parvum [2]; C1 at 2*EC90, 19.5 h post-infection): 1400 | Parasites Detected, Average (C. parvum [2]; C1 at 2*EC90, 22.5 h post-infection): 945 | Parasites Detected, Average (C. parvum [2]; C1 at EC90, 6 h post-infection): 2336 | Parasites Detected, Average (C. parvum [2]; C1 at EC90, 9.5 h post-infection): 2363 | Parasites Detected, Average (C. parvum [2]; C1 at EC90, 12 h post-infection): 2052 | Parasites Detected, Average (C. parvum [2]; C1 at EC90, 13.5 h post-infection): 2149 | Parasites Detected, Average (C. parvum [2]; C1 at EC90, 15 h post-infection): 1056 | Parasites Detected, Average (C. parvum [2]; C1 at EC90, 18 h post-infection): 1258 | Parasites Detected, Average (C. parvum [2]; C1 at EC90, 19.5 h post-infection): 2054 | Parasites Detected, Average (C. parvum [2]; C1 at EC90, 22.5 h post-infection): 2003

CC(=O)Oc1ccccc1C(=O)Nc1ncc([N+](=O)[O-])s1 [Nitazoxanide]
efficacy in AIDS patients (cryptosporidiosis): equivalent to a placebo

CCOc1ccc2cc(-c3nn(CC4CCN(C)CC4)c4ncnc(N)c34)ccc2n1 [BKI-1369]
anticryptosporidial efficacy in gnotobiotic piglet model (Cryptosporidium): previously demonstrated anticryptosporidial efficacy
